Results published in ChEMBL document CHEMBL3132769, “Fragment growing to retain or alter the selectivity of anchored kinase hinge-binding fragments” (Medchemcomm, 2014).

Experiments:
[1] = molecular target: T1, Serine/threonine-protein kinase D3 (Homo sapiens) (UniProt O94806); experiment: Inhibition of human full length PKD3 expressed in baculovirus assessed as substrate phosphorylation using fluorescence-labelled peptides as substrate at 0.2 uM after 90 mins by microfluidic peptide phosphorylation assay
T1 sequence (whole entry): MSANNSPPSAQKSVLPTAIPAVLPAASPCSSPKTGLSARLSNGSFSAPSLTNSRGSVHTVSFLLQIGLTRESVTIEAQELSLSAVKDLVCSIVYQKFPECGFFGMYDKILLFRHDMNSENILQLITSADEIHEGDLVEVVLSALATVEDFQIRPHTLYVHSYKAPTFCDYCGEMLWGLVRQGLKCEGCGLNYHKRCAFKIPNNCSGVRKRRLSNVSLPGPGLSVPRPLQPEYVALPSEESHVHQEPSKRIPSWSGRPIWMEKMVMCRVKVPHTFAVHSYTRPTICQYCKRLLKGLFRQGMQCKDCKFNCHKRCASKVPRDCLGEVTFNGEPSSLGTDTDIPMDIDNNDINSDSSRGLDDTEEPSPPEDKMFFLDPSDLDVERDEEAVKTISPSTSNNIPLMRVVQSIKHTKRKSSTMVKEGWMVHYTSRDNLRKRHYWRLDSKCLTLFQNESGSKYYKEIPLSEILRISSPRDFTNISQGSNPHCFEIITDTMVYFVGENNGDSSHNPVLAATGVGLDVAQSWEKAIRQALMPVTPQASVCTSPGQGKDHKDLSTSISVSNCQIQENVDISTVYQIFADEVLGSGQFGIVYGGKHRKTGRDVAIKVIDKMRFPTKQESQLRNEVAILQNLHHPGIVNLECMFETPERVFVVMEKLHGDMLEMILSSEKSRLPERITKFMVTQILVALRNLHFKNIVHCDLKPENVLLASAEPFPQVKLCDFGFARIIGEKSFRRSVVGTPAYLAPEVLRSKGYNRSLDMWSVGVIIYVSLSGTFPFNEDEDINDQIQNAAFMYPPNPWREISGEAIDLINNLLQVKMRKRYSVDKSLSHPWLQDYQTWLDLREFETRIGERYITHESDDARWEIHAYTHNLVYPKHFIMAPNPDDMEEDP

[2] = molecular target: T2, Protein kinase C epsilon type (Homo sapiens) (UniProt Q02156); conditions: 0.1 uM
T2 sequence (whole entry): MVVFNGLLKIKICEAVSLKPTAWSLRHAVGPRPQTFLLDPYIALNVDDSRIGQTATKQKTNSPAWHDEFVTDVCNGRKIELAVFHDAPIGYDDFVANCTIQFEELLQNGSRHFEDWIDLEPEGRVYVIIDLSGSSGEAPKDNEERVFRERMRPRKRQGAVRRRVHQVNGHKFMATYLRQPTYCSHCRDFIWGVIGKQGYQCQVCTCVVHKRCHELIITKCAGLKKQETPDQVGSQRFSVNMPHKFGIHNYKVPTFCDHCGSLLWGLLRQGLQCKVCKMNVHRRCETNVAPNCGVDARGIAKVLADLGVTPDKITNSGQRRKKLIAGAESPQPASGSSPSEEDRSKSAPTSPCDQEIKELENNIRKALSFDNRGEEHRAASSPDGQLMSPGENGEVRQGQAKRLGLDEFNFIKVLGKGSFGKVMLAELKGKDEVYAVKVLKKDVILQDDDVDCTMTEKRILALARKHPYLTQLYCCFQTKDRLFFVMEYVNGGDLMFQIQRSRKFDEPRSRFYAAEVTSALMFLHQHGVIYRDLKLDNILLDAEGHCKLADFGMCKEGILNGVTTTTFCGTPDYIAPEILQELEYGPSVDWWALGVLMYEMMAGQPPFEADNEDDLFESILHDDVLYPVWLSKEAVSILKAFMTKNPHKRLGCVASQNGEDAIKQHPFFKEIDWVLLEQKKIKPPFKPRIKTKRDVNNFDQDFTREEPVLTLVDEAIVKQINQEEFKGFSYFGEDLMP
Description: Inhibition of human truncated PKC epsilon expressed in baculovirus assessed as substrate phosphorylation using fluorescence-labelled peptides as substrate at 0.1 uM after 90 mins by microfluidic peptide phosphorylation assay

[3] = molecular target: T3, Aurora kinase C (Homo sapiens) (UniProt Q9UQB9); experiment: Inhibition of human full length AurC expressed in baculovirus assessed as substrate phosphorylation using fluorescence-labelled peptides as substrate at 0.1 uM after 90 mins by microfluidic peptide phosphorylation assay
T3 sequence (whole entry): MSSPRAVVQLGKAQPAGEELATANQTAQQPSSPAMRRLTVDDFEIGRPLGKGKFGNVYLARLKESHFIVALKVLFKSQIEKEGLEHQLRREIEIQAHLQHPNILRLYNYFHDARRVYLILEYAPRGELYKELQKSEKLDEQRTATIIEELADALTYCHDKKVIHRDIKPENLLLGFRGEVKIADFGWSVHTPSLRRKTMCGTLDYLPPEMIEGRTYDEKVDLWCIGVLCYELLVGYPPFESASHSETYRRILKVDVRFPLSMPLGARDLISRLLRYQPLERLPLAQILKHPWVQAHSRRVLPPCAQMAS

[4] = molecular target: Fibroblast growth factor receptor 1 (Homo sapiens) (UniProt P11362); experiment: Inhibition of human FGFR1 catalytic domain expressed in baculovirus assessed as substrate phosphorylation using fluorescence-labelled peptides as substrate at 9 uM after 90 mins by microfluidic peptide phosphorylation assay
[5] = molecular target: T4, Serine/threonine-protein kinase Sgk2 (Homo sapiens) (UniProt Q9HBY8); experiment: Inhibition of human full length SGK2 expressed in baculovirus assessed as substrate phosphorylation using fluorescence-labelled peptides as substrate at 70 uM after 90 mins by microfluidic peptide phosphorylation assay
T4 sequence (whole entry): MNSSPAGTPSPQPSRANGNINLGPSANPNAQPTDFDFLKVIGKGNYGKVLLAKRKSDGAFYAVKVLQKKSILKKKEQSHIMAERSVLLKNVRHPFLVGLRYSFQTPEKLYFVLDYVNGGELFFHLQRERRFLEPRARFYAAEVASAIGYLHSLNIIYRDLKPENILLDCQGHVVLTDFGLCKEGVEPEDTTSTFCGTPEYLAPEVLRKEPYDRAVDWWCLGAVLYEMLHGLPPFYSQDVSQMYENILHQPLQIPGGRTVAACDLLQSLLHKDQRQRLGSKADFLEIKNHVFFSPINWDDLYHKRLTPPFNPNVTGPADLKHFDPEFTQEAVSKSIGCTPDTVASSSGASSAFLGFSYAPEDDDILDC

Chain of Fibroblast growth factor receptor 1 (Homo sapiens) (P11362 22-822 limits assumed): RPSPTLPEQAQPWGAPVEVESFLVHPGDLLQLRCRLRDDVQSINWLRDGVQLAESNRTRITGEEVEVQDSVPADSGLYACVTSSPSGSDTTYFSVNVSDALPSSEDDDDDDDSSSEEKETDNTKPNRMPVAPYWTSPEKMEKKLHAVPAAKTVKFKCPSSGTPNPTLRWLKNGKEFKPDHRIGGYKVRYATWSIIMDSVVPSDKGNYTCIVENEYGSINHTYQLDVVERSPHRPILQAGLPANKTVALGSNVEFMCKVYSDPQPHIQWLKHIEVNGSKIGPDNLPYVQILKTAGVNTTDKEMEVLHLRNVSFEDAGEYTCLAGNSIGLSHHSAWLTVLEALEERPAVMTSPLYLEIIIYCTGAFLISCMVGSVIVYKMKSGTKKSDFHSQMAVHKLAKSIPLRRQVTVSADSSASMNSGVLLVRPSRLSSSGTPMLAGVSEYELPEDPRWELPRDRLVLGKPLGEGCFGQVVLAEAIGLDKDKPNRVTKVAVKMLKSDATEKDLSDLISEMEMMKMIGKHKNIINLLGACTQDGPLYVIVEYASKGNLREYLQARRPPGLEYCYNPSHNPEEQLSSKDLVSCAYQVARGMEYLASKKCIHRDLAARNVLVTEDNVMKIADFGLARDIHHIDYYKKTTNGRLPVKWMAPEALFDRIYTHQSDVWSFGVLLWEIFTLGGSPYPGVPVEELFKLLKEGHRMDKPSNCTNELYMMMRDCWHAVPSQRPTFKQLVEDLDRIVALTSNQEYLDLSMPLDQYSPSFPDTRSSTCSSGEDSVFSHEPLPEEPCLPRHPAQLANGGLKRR

## Clc1ccc(C2(c3ccc(-c4ncnc5[nH]cnc45)cc3)CCNCC2)cc1
[1]
  inhibition: 12.5%

## C[C@H](CN(C)C)Oc1nc(Nc2cc3cccc(Cl)c3cn2)cnc1C#N
[2]
  inhibition: 0%
[3]
  inhibition: 1%

## NCC1CN(c2ncnc3[nH]c4cnccc4c23)CCO1 (stereo not given)
[4]
  inhibition: 55.5%

## CNCc1ccc(-c2ncnc3[nH]cnc23)cc1
[5]
  inhibition: 74%
